Measurements published in ChEMBL document CHEMBL4715697, “Synthesis and biological activity of benzamide DNA minor groove binders” (2016).

Columns and labels:
HOP-92 = assay: Growth inhibition of human HOP-92 cells assessed as cell growth at 10 uM incubated for 48 hrs by sulforhodamine B assay relative to control; type: functional; settings: read-out: Activity
SR = assay: Growth inhibition of human SR cells incubated for 48 hrs by sulforhodamine B assay; type: functional
[1] = read-out: LC50 (the source's name)
[2] = read-out: pLC50 (the source's name) (converted)

Compound | growth at 10 µM (HOP-92) [%] | GI50 (SR; read-out: GI50) [µM] | CC50 (SR; [1]) [µM] | TGI (SR; read-out: TGI) [µM] | GI50 (SR; read-out: pGI50 (converted)) [µM] | CC50 (SR; [2]) [µM] | TGI (SR; read-out: pTGI) [µM]
CC(=O)Nc1cc(CO)cc(NC(=O)c2ccccc2)c1 | 96.3 | – | – | – | – | – | –
CC(=O)Nc1cc(CCl)cc(NC(=O)c2ccc(C(=O)Nc3cccc(NC(=O)CCCN(C)C)c3)cc2)c1 | – | > 100 | > 100 | > 100 | > 100 | > 100 | > 100
CC(=O)Nc1cc(CO[Si](C)(C)C(C)(C)C)cc(NC(=O)c2ccc(C(=O)Nc3cccc(NC(=O)CCCN(C)C)c3)cc2)c1 | – | > 75 | > 75 | > 75 | > 75.9 | > 75.9 | > 75.9
